Test [1] concerns the target T1, human heterochannels Kv(1.1-1.2)2 (Homo sapiens, UniProt P16389+Q09470, S369T/S371T).
T1 construct: expressed in transfected cells; host or cells: mouse neuroblastoma Neuro-2a cells transfected with pmKate2-KCNA1-KCNA2
Nature of the test: Competitive binding of peptide and HgTx-G to Kv(1.1-1.2)2 heterochannels. The source says:
To construct the gene encoding a fluorescent concatenated dimer mKate2-Kv1.1-Kv1.2 (K-Kv1.1-1.2), a cloning strategy was used, in which the C-terminus of the human Kv1.1 α-subunit was fused end-to-end to the N-terminus of the human Kv1.2 α-subunit via a short KL linker that corresponds to the HindIII restriction site. Here, we followed the design of the α-subunit concatemers proposed earlier. The previously obtained plasmids pmKate2-KCNA1 and pmKate2-KCNA2, which coded for mKate2-Kv1.1 (K-Kv1.1) and mKate2-Kv1.2 (K-Kv1.2) fusion proteins, were used for cloning. In these proteins, both human α-subunits Kv1.1 and Kv1.2 are N-terminally tagged with the red fluorescent protein mKate2 and harbor single mutations (S369T in Kv1.1, and S371T in Kv1.2) that improve the surface presentation of the homotetrameric channels. At first, pmKate2-KCNA1stopless was generated by amplification of the KCNA1 gene lacking TAA stop codon in a polymerase chain reaction (PCR) using a pair of oligonucleotide primers Kcna1-f1 (5′-[…]-3′) and Kcna1-Stop-r1 (5′-[…]-3′; BglII and HindIII sites are underlined). The obtained DNA fragment was hydrolyzed by BglII/HindIII restriction endonucleases and cloned into pmKate2-KCNA1 plasmid to substitute KCNA1 for KCNA1stopless. The obtained plasmid pmKate2-KCNA1stopless was further used as a vector to produce the KCNA1-KCNA2 dimer. For this, the KCNA2 gene was amplified in PCR using primers Kcna2-Hind-f1 (5′- […]-3′) and Kcna2-Sal-r1 ([…]-3′; HindIII, SalGI, and PstI sites are underlined; TAA stop codon is marked in bold) and cloned into HindIII/SalI sites of pmKate2-KCNA1stopless. The resulting pmKate2-KCNA1-KCNA2 plasmid encoded K-Kv1.1-1.2.
To analyze the binding of HgTx-G to heterochannels, HgTx-G (0.032–2 nM) was added to cells in the complete medium for 1 h. In the experiments with competitive binding, HgTx-G (0.5 nM) was added to cells, together with the studied peptide ([…]; 1.25–100 nM ChTx; 0.5–20 nM AgTx2, 2–10 nM MeKTx11-1, 0.063–1 nM Ce1, 0.063–1 nM Ce4, or 1 µM ScyTx), and incubated in the complete medium for 1 h.
Confocal microscopy measurements were carried out with the SP2 laser scanning confocal microscope (Leica Microsystems GmbH, Wetzlar, Germany), using the 63× water-immersion objective (HCX PL APO, NA = 1.2). Axial and lateral resolutions were 0.6 and 0.2 µm.
Fluorescence of proteins labeled with mKate2 was excited at 561 nm and detected in the 680–800 nm region. Fluorescence of HgTx-G was excited at 488 nm and recorded in the 495–540 nm region. The fluorescent probes of various cellular organelles were excited at 488 nm and detected in the 495–540 nm region.
Quantitative analysis of HgTx-G interaction with heterochannels was performed following the procedure developed previously. Briefly, confocal images of cells were used to calculate the ratio of the fluorescence intensity of HgTx-G bound to heterochannels to the fluorescence intensity of membrane-embedded heterochannels for each measured cell. This ratio was averaged over a sample of measured cells (20–30 cells) to obtain the Rav value and its standard deviation.
To characterize the affinity of unlabeled peptide for heterochannels, the competitive binding of this peptide and HgTx-G to heterochannels was measured at the constant concentration of HgTx-G (L) and increasing concentration (C) of the peptide. Rav data were calculated, plotted as a function of C, and fitted with the following equation:Rav(C) = Rav0/(1 + C/DC50)(2) where DC50 is the peptide concentration displacing 50% of HgTx-G from the complex with heterochannels, and Rav0 is Rav at C = 0.
Further, the Cheng–Prusoff equation was used to calculate the apparent dissociation constant (Kap) of the complex between the studied peptide and heterochannels:Kap = DC50/(1 + L/Kd)(3)
Three independent experiments were performed, and data on Kap were averaged and presented as mean ± SEM.

Test [2] relates to Kv1.2. Nature of the test: Competitive binding, homotetrameric Kv1.2 channel (earlier data). As to conditions: Kv1.2 vs Kv1.1 (Table 2).
Test [3] has as its target Kv1.1. As to conditions: Kv1.1; ref [34]; read-out: Kap; cited from earlier work. The text has this:
(§1) These properties were also similar to those reported by other investigators for the corresponding homotetrameric channels, Kv1.1 and Kv1.2. It was also shown that the Kd of the complexes between HgTx-G, a high-affinity fluorescent ligand for the Kv1.1 and Kv1.2 channels, and ...

Test [4] concerns the target Kv1.2. As to conditions: Kv1.2; ref [35]; read-out: Kap; cited from earlier work.
Source text: as §1

Bridge positions count the residues as written; N and C are the ends. Peptide text beside a SMILES is read from it.

T1 sequence (Q09470 whole entry S369T): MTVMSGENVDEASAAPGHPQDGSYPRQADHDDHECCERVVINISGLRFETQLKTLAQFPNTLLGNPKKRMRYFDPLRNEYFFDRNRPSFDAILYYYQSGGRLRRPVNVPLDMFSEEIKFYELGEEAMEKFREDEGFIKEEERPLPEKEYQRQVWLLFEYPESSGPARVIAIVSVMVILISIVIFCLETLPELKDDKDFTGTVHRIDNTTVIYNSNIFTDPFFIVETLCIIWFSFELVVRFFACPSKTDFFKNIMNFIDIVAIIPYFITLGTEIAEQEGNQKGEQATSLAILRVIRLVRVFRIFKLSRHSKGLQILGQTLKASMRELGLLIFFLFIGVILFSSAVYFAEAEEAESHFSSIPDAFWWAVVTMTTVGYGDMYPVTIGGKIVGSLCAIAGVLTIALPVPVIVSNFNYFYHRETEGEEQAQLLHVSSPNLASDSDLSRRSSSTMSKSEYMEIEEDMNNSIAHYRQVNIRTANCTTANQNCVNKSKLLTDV
T1 sequence (P16389 2-499 S371T): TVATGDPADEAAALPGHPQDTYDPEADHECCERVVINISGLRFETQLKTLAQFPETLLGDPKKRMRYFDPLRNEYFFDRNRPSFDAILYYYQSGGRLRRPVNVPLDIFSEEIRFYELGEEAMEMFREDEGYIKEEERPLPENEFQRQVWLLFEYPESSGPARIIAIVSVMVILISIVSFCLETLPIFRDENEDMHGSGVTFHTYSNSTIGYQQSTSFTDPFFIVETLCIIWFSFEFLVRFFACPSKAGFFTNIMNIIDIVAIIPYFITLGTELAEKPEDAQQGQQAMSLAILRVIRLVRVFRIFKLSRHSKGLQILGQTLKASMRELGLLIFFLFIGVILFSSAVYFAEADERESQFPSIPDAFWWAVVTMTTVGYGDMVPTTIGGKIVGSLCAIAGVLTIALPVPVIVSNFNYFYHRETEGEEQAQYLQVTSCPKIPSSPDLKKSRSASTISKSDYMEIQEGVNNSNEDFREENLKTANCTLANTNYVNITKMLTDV

In the case of `CC[C@H](C)[C@@H]1NC(=O)[C@@H]2CSSC[C@@H]3NC(=O)[C@H](CCCCN)NC(=O)[C@H](CCCNC(=N)N)NC(=O)[C@H](CC(N)=O)NC(=O)[C@H](CCSC)NC(=O)[C@H](CSSC[C@H](NC(=O)[C@H](CO)NC(=O)[C@@H](NC(=O)[C@H](CC(N)=O)NC(=O)[C@@H](NC(=O)[C@@H]4CCCN4C(=O)[C@@H](NC(=O)CN)C(C)C)[C@@H](C)CC)C(C)C)C(=O)N[C@@H]([C@@H](C)O)C(=O)NCC(=O)N[C@@H](CO)C(=O)N4CCC[C@H]4C(=O)N[C@@H](CCC(N)=O)C(=O)N2)NC(=O)[C@H](CCCCN)NC(=O)CNC(=O)[C@H](Cc2ccccc2)NC(=O)[C@H](CCCNC(=N)N)NC(=O)[C@H](CCSC)NC(=O)CNC(=O)[C@H](C)NC(=O)[C@H](CC(=O)O)NC(=O)[C@H](CCCCN)NC(=O)[C@H](CSSC[C@@H](C(=O)N[C@H](C(=O)N2CCC[C@H]2C(=O)N[C@@H](CCCCN)C(=O)O)[C@@H](C)O)NC(=O)[C@H](Cc2c[nH]cn2)NC3=O)NC(=O)[C@@H]2CCCN2C(=O)[C@H](CCCCN)NC1=O` [AgTx2, agitoxin 2], the Kd in test [1] (Kv(1.1-1.2)2 formed by K-Kv1.1-1.2, competitive displacement of 0.5 nM HgTx-G, complete medium, 1 h, Cheng-Prusoff, mean ± SEM of three independent experiments, read-out: apparent dissociation constant (Kap)) is 0.25 ± 0.05 nM.

For the molecule `CC[C@H](C)[C@H](NC(=O)[C@@H](NC(=O)[C@@H](N)[C@@H](C)O)C(C)C)C(=O)N[C@@H](CC(N)=O)C(=O)N[C@H](C(=O)N[C@@H](CCCCN)C(=O)N[C@H]1CSSC[C@@H]2NC(=O)[C@H](CCCCN)NC(=O)[C@H](C)NC(=O)CNC(=O)[C@H](C)NC(=O)[C@H](Cc3c[nH]cn3)NC(=O)[C@@H]3CCCN3C(=O)CNC(=O)[C@H](Cc3ccc(O)cc3)NC(=O)[C@H](CC(C)C)NC(=O)[C@H](CC(=O)O)NC(=O)[C@H](CCCCN)NC(=O)[C@@H]3CSSC[C@@H](C(=O)N[C@@H](Cc4ccc(O)cc4)C(=O)N[C@@H](CC(N)=O)C(=O)N[C@@H](CC(N)=O)C(=O)O)NC(=O)[C@H](CCCCN)NC(=O)[C@H](CSSC[C@H](NC(=O)[C@H](CCC(N)=O)NC(=O)[C@H](CCCCN)NC(=O)[C@@H]4CCCN4C(=O)[C@H](CO)NC(=O)[C@H]([C@@H](C)O)NC1=O)C(=O)N[C@@H](CC(C)C)C(=O)N[C@@H](CCCCN)C(=O)N1CCC[C@H]1C(=O)N3)NC(=O)[C@H](CCCCN)NC(=O)CNC(=O)[C@H](CC(N)=O)NC(=O)[C@H](CCSC)NC2=O)C(C)C` [Ce1] (H-TVINVKCTSPKQCLKPCKDLYGPHAGAKCMNGKCKCYNN-OH; disulfide 7-29, 13-34, 17-36; N-terminus and C-terminus assumed), the “affinity for Kv(1.1-1.2)2 in words” value in test [1] (Kv(1.1-1.2)2, competitive binding with HgTx-G) is “highest picomolar affinity”. Further, in test [2], the “activity against Kv1.2 compared to Kv1.1” value is on record as “much higher activity against the Kv1.2 channel than against the Kv1.1 channel”. Further, the figures for the Kd in test [3] and in test [4] were 11 ± 5 nM and 0.01 ± 0.002 nM, respectively.

The values above are taken from PMC12427625, “Heterochannels Kv(1.1-1.2)2 and Their Interactions with Pore Blockers” (Cells, 2025).
